Laboratory results published in US7151195B2, “Phthalamide derivative, agricultural or horticultural insecticide, and method of use thereof” (Bayer CropScience LP, priority 2002, dated 2006).

Experiments:
Assay type in all cases: in vivo
[1] = tested on: Diamond Back Moth (Plutella xylostella); assay: Insecticidal test on diamond back moth (Test Example 1); conditions: Chinese cabbage seedling with eggs immersed about 30 seconds, hatched insects counted six days after immersion, 25° C.; for mortality at 50 ppm: Plutella xylostella, 144 h, read-out: Test Example 1: insecticidal effect (mortality criterion); for Test Example 1: insecticidal effect (mortality criterion): 50 ppm
Method: Adult diamond back moths were released and allowed to oviposit on a Chinese cabbage seedling. Two days after the release, the seedling having the eggs deposited thereon was immersed for about 30 seconds in a liquid chemical prepared by diluting a preparation containing each compound listed in Tables 1 to 3 as an active ingredient to adjust the concentration to 50 ppm. After air-dryness, it was allowed to stand in a room thermostatted at 25° C. Six days after the immersion, the hatched insects were counted. The mortality was calculated according to the following equation and the insecticidal effect was judged according to the criterion shown below. The test was carried out with triplicate groups of 10 insects.

[2] = tested on: Smaller Tea Tortrix (Adoxophyes sp.); assay: Insecticidal test on smaller tea tortrix (Test Example 3); conditions: 50 ppm; tea leaves immersed about 30 seconds; larvae; counted eight days after inoculation; 25° C., humidity 70%
Method: Tea leaves were immersed for about 30 seconds in a liquid chemical prepared by diluting a preparation containing each compound listed in Tables 1 to 3 as an active ingredient to adjust the concentration to 50 ppm. After air-dryness, the tea leaves were placed in a plastic Petri dish with a diameter of 9 cm and inoculated with larvae of smaller tea tortrix, after which the dish was allowed to stand in a room thermostatted at 25° C. and having a humidity of 70%. Eight days after the inoculation, the dead and alive larvae were counted and, the mortality was calculated according to the equation shown in Test Example 2, and the insecticidal effect was judged according to the criterion shown in Test Example 1. The test was carried out with triplicate groups of 10 insects.

[3] = tested on: Common Cutworm (Spodoptera litura); assay: Insecticidal test on common cutworm (Test Example 2); conditions: cabbage leaf immersed about 30 seconds, second-instar larvae, counted eight days after inoculation, 25° C.; for mortality at 50 ppm: Spodoptera litura, 192 h, read-out: Test Example 2: insecticidal effect (mortality criterion); for Test Example 2: insecticidal effect (mortality criterion): 50 ppm
Method: A piece of cabbage leaf (cultivar; Shikidori) was immersed for about 30 seconds in a liquid chemical prepared by diluting a preparation containing each compound listed in Tables 1 to 3 as an active ingredient to adjust the concentration to 50 ppm. After air-dryness, it was placed in a plastic Petri dish with a diameter of 9 cm and inoculated with second-instar larvae of common cutworm, after which the dish was closed and then allowed to stand in a room thermostatted at 25° C. Eight days after the inoculation, the dead and alive were counted. The mortality was calculated according to the following equation and the insecticidal effect was judged according to the criterion shown in Test Example 1. The test was carried out with triplicate groups of 10 insects.

Row | SMILES | mortality at 50 ppm [1] [%] | Test Example 3: insecticidal effect (mortality criterion) [2] | mortality at 50 ppm [3] [%] | Test Example 1: insecticidal effect (mortality criterion) [1] | Test Example 2: insecticidal effect (mortality criterion) [3]
1 | CC(C)(CS(C)(=O)=O)NC(=O)c1c(I)cccc1C(=O)Nc1ccc(S(F)(F)(F)(F)F)cc1Cl [1-374, N^1-(2-chloro-4-pentafluorosulfanylphenyl)-N^2-(1,1-dimethyl-2-methylsulfonylethyl)-3-iodophthalamide] | 100 | A (Mortality 100%) | 100 | – | –
2 | CSCC(C)(C)NC(=O)c1c(I)cccc1C(=O)Nc1ccc(S(F)(F)(F)(F)F)cc1Cl [1-372, N^1-(2-chloro-4-pentafluorosulfanylphenyl)-N^2-(1,1-dimethyl-2-methylthioethyl)-3-iodophthalamide] | 100 | A (Mortality 100%) | 100 | – | –
3 | CCN(C(=O)c1cccc(I)c1C(=O)NC(C)(C)C[S+](C)[O-])c1ccc(S(F)(F)(F)(F)F)cc1 (stereo not drawn) [2-23] | – | E (Mortality 49% or less) | – | A (Mortality 100%) | A (Mortality 100%)
4 | CSCC(C)(C)NC(=O)c1c(I)cccc1C(=O)Nc1ccc(S(F)(F)(F)(F)F)cc1C [1-296] | – | A (Mortality 100%) | – | A (Mortality 100%) | A (Mortality 100%)
5 | CCN(C(=O)c1cccc(I)c1C(=O)NC(C)(C)CSC)c1ccc(S(F)(F)(F)(F)F)cc1 [2-22] | – | A (Mortality 100%) | – | A (Mortality 100%) | A (Mortality 100%)
6 | CC(C)(CS(C)(=O)=O)NC(=O)c1c(I)cccc1C(=O)Nc1cccc(S(F)(F)(F)(F)F)c1 [3-7] | – | A (Mortality 100%) | – | A (Mortality 100%) | A (Mortality 100%)
7 | CSCC(C)(C)NC(=O)c1c(I)cccc1C(=O)Nc1cccc(S(F)(F)(F)(F)F)c1 [3-5] | – | A (Mortality 100%) | – | A (Mortality 100%) | E (Mortality 49% or less)
8 | Cc1cc(S(F)(F)(F)(F)F)ccc1NC(=O)c1cccc(I)c1C(=O)NC(C)CS(C)(=O)=O (stereo not drawn) [1-292] | – | A (Mortality 100%) | – | A (Mortality 100%) | A (Mortality 100%)
9 | CCN(C(=O)c1cccc(I)c1C(=O)NC(C)(C)CS(C)(=O)=O)c1ccc(S(F)(F)(F)(F)F)cc1 [2-24] | – | A (Mortality 100%) | – | A (Mortality 100%) | A (Mortality 100%)
10 | Cc1cc(S(F)(F)(F)(F)F)ccc1NC(=O)c1cccc(I)c1C(=O)NC(C)(C)C[S+](C)[O-] (stereo not drawn) [1-297] | – | A (Mortality 100%) | – | A (Mortality 100%) | A (Mortality 100%)
11 | CSCC(C)(C)NC(=O)c1c(I)cccc1C(=O)Nc1cccc(S(F)(F)(F)(F)F)c1Cl [3-24] | – | A (Mortality 100%) | – | A (Mortality 100%) | A (Mortality 100%)
12 | CC(C)(CS(C)(=O)=O)NC(=O)c1c(I)cccc1C(=O)Nc1cccc(S(F)(F)(F)(F)F)c1Cl [3-26] | – | A (Mortality 100%) | – | A (Mortality 100%) | A (Mortality 100%)
13 | CSCC(C)(C)NC(=O)c1c(I)cccc1C(=O)Nc1ccc(S(F)(F)(F)(F)F)cc1 [1-458] | – | A (Mortality 100%) | – | A (Mortality 100%) | A (Mortality 100%)
14 | CSCC(C)NC(=O)c1c(I)cccc1C(=O)Nc1ccc(S(F)(F)(F)(F)F)cc1C (stereo not drawn) [1-290] | – | A (Mortality 100%) | – | A (Mortality 100%) | A (Mortality 100%)
15 | Cc1cc(S(F)(F)(F)(F)F)ccc1NC(=O)c1cccc(I)c1C(=O)NC(C)(C)CS(C)(=O)=O [1-298] | – | A (Mortality 100%) | – | A (Mortality 100%) | A (Mortality 100%)
16 | C[S+]([O-])CC(C)(C)NC(=O)c1c(I)cccc1C(=O)Nc1cccc(S(F)(F)(F)(F)F)c1 (stereo not drawn) [3-6] | – | E (Mortality 49% or less) | – | A (Mortality 100%) | D (Mortality 79–50%)
